The record followed here is US10519134B2, “Pyrazole compounds and methods of making and using same” (Lundbeck La Jolla Research Center, Inc., priority 2015, dated 2019).

One assay deals with T1, FAAH (Mus musculus, UniProt O08914).
T1 construct: Proteomes (mouse brain membrane fraction or cell lysates); from tissue; host or cells: mouse brain membrane fraction (or cell lysates)
T1 sequence (O08914 1-579): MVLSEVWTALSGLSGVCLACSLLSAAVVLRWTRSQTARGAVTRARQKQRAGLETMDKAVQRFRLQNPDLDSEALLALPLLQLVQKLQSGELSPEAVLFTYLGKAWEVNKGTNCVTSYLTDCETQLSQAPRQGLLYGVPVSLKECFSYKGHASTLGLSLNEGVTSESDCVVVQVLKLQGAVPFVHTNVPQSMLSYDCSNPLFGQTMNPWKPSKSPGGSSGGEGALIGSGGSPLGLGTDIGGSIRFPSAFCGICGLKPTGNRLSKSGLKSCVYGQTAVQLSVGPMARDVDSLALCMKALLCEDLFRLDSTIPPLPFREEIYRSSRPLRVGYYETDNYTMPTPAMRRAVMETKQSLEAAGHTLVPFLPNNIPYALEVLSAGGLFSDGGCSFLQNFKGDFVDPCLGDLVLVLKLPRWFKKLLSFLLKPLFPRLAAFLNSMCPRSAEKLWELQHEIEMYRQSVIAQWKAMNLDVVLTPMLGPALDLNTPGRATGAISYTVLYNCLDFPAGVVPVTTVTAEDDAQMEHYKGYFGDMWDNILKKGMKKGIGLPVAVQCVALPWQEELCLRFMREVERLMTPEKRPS
The assay can be described thus: In vitro competitive activity-based protein profiling (mouse), FAAH gel band. In kind it is biochemical. Conditions: for inhibition at 1 µM: read-out: FAAH % inh. 1 μM; for IC50: mouse. The essentials: (§1)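 Competitive ABPP: inhibitors at varying concentrations were given 30 min at 37 °C with mouse brain membranes or cell lysates (1.0 mg/mL total protein) before 30 min labelling by FP-Rh or HT-01 (stock 50 μM in DMSO). Residual hydrolase activity read as in-gel fluorescence of MAGL and FAAH bands.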

Another assay has as its target T2, MAGL (Mus musculus, UniProt O35678).
T2 construct: Proteomes (mouse brain membrane fraction or cell lysates); from tissue; host or cells: mouse brain membrane fraction (or cell lysates)
T2 sequence (O35678 1-303): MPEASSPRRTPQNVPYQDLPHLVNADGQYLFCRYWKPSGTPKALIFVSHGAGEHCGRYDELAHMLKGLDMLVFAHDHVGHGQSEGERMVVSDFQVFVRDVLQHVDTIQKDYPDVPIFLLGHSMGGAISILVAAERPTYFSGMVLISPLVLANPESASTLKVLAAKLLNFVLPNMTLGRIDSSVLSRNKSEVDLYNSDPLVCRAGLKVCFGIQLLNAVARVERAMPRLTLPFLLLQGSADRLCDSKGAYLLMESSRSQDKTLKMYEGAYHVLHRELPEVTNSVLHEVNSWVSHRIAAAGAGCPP
The assay can be described thus: In vitro competitive activity-based protein profiling (mouse), MAGL gel band. In kind it is biochemical. The note with it: for inhibition at 1 µM: read-out: MAGL % inh. 1 μM; for IC50: mouse. An outline of the steps: as §1

For the compound `CS(=O)(=O)Nc1ccn(C(=O)N2CCN(Cc3cc(Cl)cc(C(F)(F)F)c3)CC2)n1` [Example 176, N-(1-(4-(3-chloro-5-(trifluoromethyl)benzyl)piperazine-1-carbonyl)-1H-pyrazol-3-yl) methanesulfonamide], the inhibition at 1 µM was 0 to 25% on FAAH and at least 75% on MAGL.
The matching figures for `CS(=O)(=O)Nc1ccn(C(=O)N2CCN(Cc3cc(C(F)(F)F)cc(C(F)(F)F)c3)CC2)n1` [Example 177, N-(1-(4-(3,5-bis(trifluoromethyl)benzyl)piperazine-1-carbonyl)-1H-pyrazol-3-yl) methanesulfonamide]: 0 to 25% and at least 75%.
With `CS(=O)(=O)Nc1ccn(C(=O)N2CCN(Cc3cc(Cl)ccc3N3CCCC3)CC2)n1` [Example 179, N-(1-(4-(5-chloro-2-(pyrrolidin-1-yl)benzyl)piperazine-1-carbonyl)-1H-pyrazol-3-yl) methanesulfonamide], the inhibition at 1 µM at FAAH is 0 to 25%; on MAGL it was at least 75%.
The corresponding values for `CS(=O)(=O)Nc1ccn(C(=O)N2CCN(Cc3cc(N4CCOCC4)ccc3C(F)(F)F)CC2)n1` [Example 181, N-(1-(4-(5-morpholino-2-(trifluoromethyl)benzyl)piperazine-1-carbonyl)-1H-pyrazol-3-yl) methanesulfonamide] are 0 to 25% and 50 to 75%.
The matching figures for `CS(=O)(=O)Nc1ccn(C(=O)N2CCN(C(c3ccc(Cl)cc3)c3ccc(Cl)cc3)CC2)n1` [Example 182, N-(1-(4-(bis(4-chlorophenyl)methyl)piperazine-1-carbonyl)-1H-pyrazol-3-yl) methanesulfonamide]: 0 to 25% and 0 to 25%.
The corresponding values for `CS(=O)(=O)Nc1ccn(C(=O)N2CCN(Cc3ccc(-c4ccccc4)cc3OCc3ccccc3)CC2)n1` [Example 183, N-(1-(4-((3-(benzyloxy)-[1,1′-biphenyl]-4-yl)methyl)piperine-1-carbonyl)-1H-pyrazol-3-yl) methanesulfonamide] are 0 to 25% and at least 75%.
In the case of `Cn1ncc2cc(CN3CCN(C(=O)n4ccc(NS(C)(=O)=O)n4)CC3)ccc21` [Example 184, N-(1-(4-((1-methyl-1H-indazol-5-yl)methyl)piperazine-1-carbonyl)-1H-pyrazol-3-yl) methanesulfonamide], the results for the inhibition at 1 µM at FAAH and on MAGL were 0 to 25% and 25 to 50%, respectively.
In the case of `CC(=O)Nc1ccn(C(=O)N2CCC3(CCCN3Cc3ccc4c(ccn4C)c3)CC2)n1` [Example 185, N-(1-(1-((1-methyl-1H-indol-5-yl)methyl)-1,8-diazaspiro[4.5]decane-8-carbonyl)-1H-pyrazol-3-yl)acetamide], on FAAH, the half-inhibitory concentration (IC50) (in general, the concentration that gives 50% inhibition) is 1000 to 10000 nM and the inhibition at 1 µM fell in the range of 0 to 25%. Moreover, at MAGL, the IC50 was 1000 to 10000 nM and the inhibition at 1 µM was at least 75%.
Turning to `CS(=O)(=O)Nc1ccn(C(=O)N2CCN(Cc3cc(N4CCCC4)ccc3C(F)(F)F)CC2)n1` [Example 195, N-(1-(4-(5-(pyrrolidin-1-yl)-2-(trifluoromethyl)benzyl)piperazine-1-carbonyl)-1H-pyrazol-3-yl) methanesulfonamide], the figures for the inhibition at 1 µM on FAAH and on MAGL were 0 to 25% and at least 75%, respectively.
The matching figures for `CS(=O)(=O)Nc1ccn(C(=O)N2CCN(Cc3ccc(Cl)c(-c4nnn[nH]4)c3)CC2)n1` [Example 214, N-(1-(4-(4-chloro-3-(1H-tetrazol-5-yl)benzyl)piperazine-1-carbonyl)-1H-pyrazol-3-yl) methanesulfonamide]: 0 to 25% and 0 to 25%.
The corresponding values for `CN1CCC(Oc2cc(CN3CCN(C(=O)n4ccc(NS(C)(=O)=O)n4)CC3)ccc2Cl)CC1` [Example 220, N-(1-(4-(4-chloro-3-((1-methylpiperidin-4-yl)oxy)benzyl)piperazine-1-carbonyl)-1H-pyrazol-3-yl) methanesulfonamide] are 0 to 25% and 25 to 50%.
Consider `CC(=O)Nc1ccn(C(=O)N2CCN(Cc3ccc(C(F)(F)F)c(-c4nnn[nH]4)c3)CC2)n1` [Example 222, N-(1-(4-(3-(1H-tetrazol-5-yl)-4-(trifluoromethyl)benzyl)piperazine-1-carbonyl)-1H-pyrazol-3-yl)acetamide], for which, at FAAH, the 50% inhibitory concentration (IC50) lay in the range of 1000 to 10000 nM and the inhibition at 1 µM was in the range of 0 to 25%. Further, at MAGL, the 50% inhibitory concentration (IC50) was at most 100 nM and the inhibition at 1 µM was at least 75%.
The corresponding values for `Cc1c(CN2CCCC23CCN(C(=O)n2ccc(NS(C)(=O)=O)n2)CC3)cccc1N1CCCC1` [Example 224, N-(1-(1-(2-methyl-3-(pyrrolidin-1-yl)benzyl)-1,8-diazaspiro[4.5]decane-8-carbonyl)-1H-pyrazol-3-yl) methanesulfonamide] are 1000 to 10000 nM, 0 to 25%, 1000 to 10000 nM and at least 75%.
Turning to `CN1CCN(c2c(Cl)cccc2CN2CCN(C(=O)n3ccc(NS(C)(=O)=O)n3)CC2)CC1` [Example 225, N-(1-(4-(3-chloro-2-(4-methylpiperazin-1-yl)benzyl)piperazine-1-carbonyl)-1H-pyrazol-3-yl) methanesulfonamide], the inhibition at 1 µM at FAAH and at MAGL was 0 to 25% throughout.
Regarding `Cc1c(CN2CCCC23CCN(C(=O)n2ccc(NS(C)(=O)=O)n2)CC3)cccc1N1CCOCC1` [Example 226, N-(1-(1-(2-methyl-3-morpholinobenzyl)-1,8-diazaspiro[4.5]decane-8-carbonyl)-1H-pyrazol-3-yl) methanesulfonamide], the inhibition at 1 µM on FAAH and on MAGL was 0 to 25% in each case.
Take `CCN1CCN(c2cc(C(F)(F)F)ccc2CN2CCCC23CCN(C(=O)n2ccc(NS(C)(=O)=O)n2)CC3)CC1` [Example 238, N-(1-(1-(2-(4-ethylpiperazin-1-yl)-4-(trifluoromethyl)benzyl)-1,8-diazaspiro[4.5]decane-8-carbonyl)-1H-pyrazol-3-yl) methanesulfonamide]: the inhibition at 1 µM on FAAH and on MAGL was 0 to 25% in each case.
As to `CS(=O)(=O)Nc1ccn(C(=O)N2CCC3(CCCN3Cc3ccc(C(F)(F)F)cc3N3CCN(C4CC4)CC3)CC2)n1` [Example 239, N-(1-(1-(2-(4-cyclopropylpiperazin-1-yl)-4-(trifluoromethyl)benzyl)-1,8-diazaspiro[4.5]decane-8-carbonyl)-1H-pyrazol-3-yl) methanesulfonamide], the inhibition at 1 µM on FAAH and on MAGL was 0 to 25% in each case.
For `CS(=O)(=O)Nc1ccn(C(=O)N2CCN(Cc3ccc(C(F)(F)F)cc3N3CCN(CC(=O)O)CC3)CC2)n1` [Example 241, 2-(4-(2-((4-(3-(methylsulfonamido)-1H-pyrazole-1-carbonyl)piperazin-1-yl)methyl)-5-(trifluoromethyl)phenyl)piperazin-1-yl)acetic acid], the inhibition at 1 µM on FAAH lay in the range of 0 to 25%; on MAGL it was 50 to 75%.
As for `CS(=O)(=O)Nc1ccn(C(=O)N2CCN(Cc3cc(N4CCC(C(=O)O)CC4)cc(C(F)(F)F)c3)CC2)n1` [Example 242, 1-(3-((4-(3-(methylsulfonamido)-1H-pyrazole-1-carbonyl)piperazin-1-yl)methyl)-5-(trifluoromethyl)phenyl)piperidine-4-carboxylic acid], the inhibition at 1 µM at FAAH and at MAGL was 0 to 25% each time.
With `CS(=O)(=O)Nc1ccn(C(=O)N2CCC3(CCCN3Cc3ccc(C(F)(F)F)cc3N3CCC(C(=O)O)CC3)CC2)n1` [Example 243, 1-(2-((8-(3-(methylsulfonamido)-1H-pyrazole-1-carbonyl)-1,8-diazaspiro[4.5]decan-1-yl)methyl)-5-(trifluoromethyl)phenyl)piperidine-4-carboxylic acid], the inhibition at 1 µM on FAAH and on MAGL was 0 to 25% throughout.
For `CS(=O)(=O)Nc1ccn(C(=O)N2CCN(Cc3cc(N4CCC(C(=O)O)C4)cc(C(F)(F)F)c3)CC2)n1` (stereo not drawn) [Example 244, 1-(3-((4-(3-(methylsulfonamido)-1H-pyrazole-1-carbonyl)piperazin-1-yl)methyl)-5-(trifluoromethyl)phenyl)pyrrolidine-3-carboxylic acid], the inhibition at 1 µM on FAAH and at MAGL was 0 to 25% each time.
